Reference: US20250109156A1, “INDOLE-CONTAINING MACROCYCLIC COMPOUNDS AND USES THEREOF” (JIANGSU AOSAIKANG PHARMACEUTICAL CO., LTD., priority 2022, published 2025)

Tests used:
[1] = system: OVCAR3 cells; test: In vitro OVCAR3 cell activity assay (CellTiter-Glo proliferation); assay type: cell-based; settings: Homo sapiens, OVCAR-3, 72 h, 3 days incubation
Protocol: Experimental Example 5: In Vitro OVCAR3 Cell Activity Assay
1640 culture medium, fetal bovine serum, penicillin/streptomycin antibiotics were purchased from WISENT. CellTiter-Glo (cell viability chemiluminescence detection reagent) reagent was purchased from Promega. OVCAR3 cell line was purchased from Nanjing Cobioer Biosciences Co. Ltd. Nivo multimode microplate reader (PerkinElmer).
The OVCAR3 cells were seeded in a white 96-well plate, with 80 μL of cell suspension per well, containing 2000 OVCAR3 cells each. The cell plate was incubated overnight in a CO2 incubator.
The compounds to be tested were 5-fold diluted with a multi-channel pipette to the 8th concentration, i.e., diluted from 200 μM to 0.512 nM, and the experiment was set up in duplicate wells. 78 μL of culture medium was added to an intermediate plate, and then 2 μL of gradient diluted compound per well was transferred to the intermediate plate according to the corresponding position. After mixing well, the compound was transferred to the cell plate at 20 μL per well. The concentration of the compound transferred to the cell plate ranged from 1 μM to 0.0026 nM. The cell plate was incubated in a CO2 incubator for 3 days. Another cell plate was prepared to measure the signal on the day of drug addition as the maximum value (denoted as Max in the equation below) for data analysis. 25 μL of cell viability chemiluminescence detection reagent was added to each well of this cell plate, and incubated at room temperature for 10 minutes to stabilize the luminescent signal. A multimode microplate reader was used for reading. […]
Using the equation (Sample−Min)/(Max−Min)*100% to convert the raw data into inhibition rate, the IC50 value may be obtained by curve fitting with four parameters (obtained by “log (inhibitor) vs. response—Variable slope” mode in GraphPad Prism). Table 1 provides the inhibitory activity of the compounds of the present disclosure on the proliferation of OVCAR3 cells.

[2] = target: CDK7/CyclinH/MAT1 (Homo sapiens (Human), UniProt P50613); test: In vitro CDK7/CyclinH/MAT1 enzyme activity assay (TR-FRET); assay type: biochemical; settings: Ulight-MBP peptide, 25° C. 60 minutes
CDK7/CyclinH/MAT1, sequence (P50613 whole entry): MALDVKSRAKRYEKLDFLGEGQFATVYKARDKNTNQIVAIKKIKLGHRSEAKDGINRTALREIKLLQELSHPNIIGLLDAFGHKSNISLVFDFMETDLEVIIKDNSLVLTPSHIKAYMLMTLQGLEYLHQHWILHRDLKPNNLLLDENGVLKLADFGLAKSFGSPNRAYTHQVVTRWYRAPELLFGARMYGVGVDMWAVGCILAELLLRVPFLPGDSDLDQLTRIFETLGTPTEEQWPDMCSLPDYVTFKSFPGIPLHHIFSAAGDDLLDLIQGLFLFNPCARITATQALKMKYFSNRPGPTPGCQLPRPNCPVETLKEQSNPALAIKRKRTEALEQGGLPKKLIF
CDK7/CyclinH/MAT1, sequence (P51946 whole entry partner): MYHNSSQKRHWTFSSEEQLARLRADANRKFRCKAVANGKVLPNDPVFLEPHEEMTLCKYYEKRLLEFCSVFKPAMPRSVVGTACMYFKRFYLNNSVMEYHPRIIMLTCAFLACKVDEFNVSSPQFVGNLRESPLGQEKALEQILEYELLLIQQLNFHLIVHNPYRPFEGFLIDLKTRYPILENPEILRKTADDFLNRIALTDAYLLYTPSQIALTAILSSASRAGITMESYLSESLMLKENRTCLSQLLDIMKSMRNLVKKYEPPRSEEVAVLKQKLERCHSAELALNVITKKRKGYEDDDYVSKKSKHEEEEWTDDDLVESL
CDK7/CyclinH/MAT1, sequence (P51948 whole entry partner): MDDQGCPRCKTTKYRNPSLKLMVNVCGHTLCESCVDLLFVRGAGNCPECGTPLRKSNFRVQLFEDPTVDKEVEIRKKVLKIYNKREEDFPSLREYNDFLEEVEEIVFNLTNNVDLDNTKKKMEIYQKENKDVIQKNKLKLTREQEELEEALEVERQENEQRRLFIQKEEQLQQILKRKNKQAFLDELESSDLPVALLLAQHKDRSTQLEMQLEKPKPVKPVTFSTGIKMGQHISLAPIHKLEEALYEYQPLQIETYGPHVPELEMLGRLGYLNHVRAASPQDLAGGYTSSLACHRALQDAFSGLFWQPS
Protocol: Experimental Example 1: In Vitro CDK7/[…] Enzyme Activity Assay
CDK7/CyclinH/MAT1 was purchased from CARNA. Ulight-MBP peptide, Eu-MBP antibody, and 1× detection buffer were purchased from PerkinElmer. High-purity ATP was purchased from Promega. EDTA was purchased from Sigma. Nivo multimode microplate reader (PerkinElmer).
Preparation of kinase buffer: the kinase buffer containing 50 mM HEPES, 1 mM EDTA, 10 mM MgCl2, 0.01% Brij-35, pH 7.4.
2.38 g of HEPES, 58 mg of EDTA, 406 mg of MgCl2, and 20 mg of Brij-35 were added to 200 mL of buffer, and the pH was adjusted to 7.4.
100 μL of 1 M EDTA stock solution was mixed with 0.625 μL of 1× detection buffer and 1725 μL of distilled water to prepare the stop solution.
Enzyme, Ulight-MBP peptide, ATP, and inhibitors were diluted with the kinase buffer.
The Eu-MBP antibody was diluted to a concentration of 8 nM/L using detection buffer.
The compounds to be tested were 5-fold diluted with a multi-channel pipette to the 8th concentration, i.e., from 40 μM to 0.512 nM, with a final DMSO concentration of 4%. The experiment was set up in duplicate wells. 2.5 μL of each concentration gradient of the inhibitor was added to the microplate, followed by 5 μL of CDK7/CyclinH/MAT1 enzyme (5 ng), and 2.5 μL of a mixture of substrate and ATP (4 mM ATP, 50 nM Ulight-MBP peptide). At this point, the final concentration gradient of the compound was 10 μM diluted to 0.128 nM. The reaction system was reacted at 25° C. for 60 minutes. After the reaction, 5 μL of stop solution was added to each well, and the reaction was continued at 25° C. for 5 minutes. After stopping the reaction, 5 μL of Eu-MBP antibody dilution was added to each well, and the mixture was reacted at 25° C. for 60 minutes. Data were then collected using the PerkinElmer Nivo multimode microplate reader in TR-FRET mode (excitation wavelength: 320 nm, emission wavelength: 665 nm).
Using the equation (Sample−Min)/(Max−Min)*100% to convert the raw data into inhibition rate, the IC50 value may be obtained by curve fitting with four parameters (obtained by “log (inhibitor) vs. response—Variable slope” mode in GraphPad Prism). Table 1 provides the CDK7/CyclinH/MAT1 enzymatic inhibitory activity of the compounds of the present disclosure.

[3] = system: HCC70 breast cancer xenograft (CDX); test: In vivo efficacy study, HCC70 breast cancer CDX model; design: species or system BALB/c nude mice; settings: for Animal tolerance: BALB/c nude mice, HCC70 CDX
Protocol: Experimental Example 6: In Vivo Efficacy Study
In vivo efficacy experiments were conducted on BALB/c nude mice subcutaneously implanted with human tumor cell line-based xenograft (CDX) derived from HCC70 breast cancer patients.
BALB/c nude mice, female, 6 to 8 weeks old, weighing approximately 19 to 23 g, were maintained in a special pathogen-free environment in individual ventilated cages (6 mice per cage). All cages, bedding, and water were disinfected before use. All animals had free access to a standard certified commercial laboratory diet. A total of 36 mice, purchased from the Laboratory Animal Department of the Shanghai Institute of Planned Parenthood Research (formerly Shanghai SIPPR-BK), were used for the study. Each mouse was injected with 10×10^6 HCC70 cells on the right side of the neck, with an injection volume of 0.2 mL, and the cell suspension was in a 1:1 ratio of PBS and Matrigel. When the average tumor volume reached approximately 179 mm^3, random grouping was performed, and dosing was initiated.
Tumor volume was measured twice a week with a two-dimensional caliper, and the volume was measured in mm^3 and calculated by the following equation: V=0.5 a×b^2, where a and b are the long and short diameters of the tumor, respectively.

SMILES | IC50 [1] [nM] | IC50 [2] [nM] | Animal tolerance ([3]; dose 3 mg/kg) | Tumor volume Day 0 ([3]; dose 3 mg/kg) [mm^3] | Tumor volume Day 7 ([3]; dose 3 mg/kg) [mm^3] | Tumor volume Day 14 ([3]; dose 3 mg/kg) [mm^3] | Tumor volume Day 21 ([3]; dose 3 mg/kg) [mm^3] | Animal tolerance ([3]; dose 1.5 mg/kg) | Tumor volume Day 0 ([3]; dose 1.5 mg/kg) [mm^3] | Tumor volume Day 7 ([3]; dose 1.5 mg/kg) [mm^3] | Tumor volume Day 14 ([3]; dose 1.5 mg/kg) [mm^3] | Tumor volume Day 21 ([3]; dose 1.5 mg/kg) [mm^3]
CN1CCCCN2CCCC[C@@H](C2)Nc2ncc(C(F)(F)F)c(n2)-c2c[nH]c3c(P(C)(C)=O)c(ccc23)C1=O [Compound 3] | 0.6 | 1.1 | – | – | – | – | – | – | – | – | – | –
CP(C)(=O)c1c2ccc3c(c[nH]c13)-c1nc(ncc1C(F)(F)F)N[C@H]1CCCN(CCCCCCO2)C1 [Compound 4] | 0.2 | 1.6 | – | – | – | – | – | – | – | – | – | –
CP(C)(=O)c1c2ccc3c(c[nH]c13)-c1nc(ncc1C(F)(F)F)N[C@H]1CCCN(CCCCNC2=O)C1 [Compound 5] | 0.2 | 1.2 | Good | 179 | 260 | 305 | 230 | – | – | – | – | –
CP(C)(=O)c1c2ccc3c(c[nH]c13)-c1nc(ncc1C(F)(F)F)N[C@H]1CCCCN(CCCCNC2=O)C1 [Compound 6] | 0.6 | 1.4 | Good | 179 | 272 | 344 | 403 | – | – | – | – | –
CN1CCCCN2CCC[C@@H](C2)Nc2ncc(C(F)(F)F)c(n2)-c2c[nH]c3c(P(C)(C)=O)c(ccc23)C1=O [Formate of compound 1] | 0.3 | 1 | – | – | – | – | – | Good | 179 | 273 | 178 | 105
